Laboratory results published in the supplement of paper PMC10307832.

Tests used:
Assay in all cases: relative viability (nuclei count vs DMSO), 5 days (fraction); higher = more cells survive
[1] = compound: CN(c1ncccc1CNc1nc(Nc2ccc3c(c2)CC(=O)N3)ncc1C(F)(F)F)S(C)(=O)=O + CC1(C)CCC(c2ccc(Cl)cc2)=C(CN2CCN(c3ccc(C(=O)NS(=O)(=O)c4ccc(N[C@H](CCN5CCOCC5)CSc5ccccc5)c(S(=O)(=O)C(F)(F)F)c4)cc3)CC2)C1 [Navitoclax] (partner 0.5 µM)
How it was run: (§1)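 Values are medians from duplicate plates. Each reflects relative viability, defined as the nuclei count of treated wells over that of vehicle wells. Lung cancer cell lines in 1536-well plates were pin-tool dosed one day after seeding with one drug alone or with a fixed anchor-drug dose plus five library-drug doses (not always all listed) in √10 steps, then fixed, stained and imaged at 4× after 5 days.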

[2] = compound: CN(c1ncccc1CNc1nc(Nc2ccc3c(c2)CC(=O)N3)ncc1C(F)(F)F)S(C)(=O)=O + C[C@]1(O)C[C@@H](c2nc(-c3ccc4ccc(-c5ccccc5)nc4c3)c3c(N)nccn32)C1 [Linsitinib] (partner 1 µM)
How it was run: as §1

[3] = compound: CN(c1ncccc1CNc1nc(Nc2ccc3c(c2)CC(=O)N3)ncc1C(F)(F)F)S(C)(=O)=O + Cc1nc(NC(=O)N2CCC[C@H]2C(N)=O)sc1-c1ccnc(C(C)(C)C(F)(F)F)c1 [Alpelisib] (partner 2 µM)
How it was run: as §1

[4] = compound: CN(c1ncccc1CNc1nc(Nc2ccc3c(c2)CC(=O)N3)ncc1C(F)(F)F)S(C)(=O)=O + O=C(CCCCCCC(=O)Nc1ccccc1)NO [Vorinostat] (partner 1 µM)
How it was run: as §1

Row | Cell Line | relative viability ([1]; first compound 0.01 µM) | relative viability ([1]; first compound 0.03162 µM) | relative viability ([1]; first compound 0.1 µM) | relative viability ([1]; first compound 0.3162 µM) | relative viability ([1]; first compound 1 µM) | relative viability ([2]; first compound 0.01 µM) | relative viability ([2]; first compound 0.03162 µM) | relative viability ([2]; first compound 0.1 µM) | relative viability ([2]; first compound 0.3162 µM) | relative viability ([2]; first compound 1 µM) | relative viability ([3]; first compound 0.01 µM) | relative viability ([3]; first compound 0.03162 µM) | relative viability ([3]; first compound 0.1 µM) | relative viability ([3]; first compound 0.3162 µM) | relative viability ([3]; first compound 1 µM) | relative viability ([4]; first compound 0.01 µM) | relative viability ([4]; first compound 0.03162 µM) | relative viability ([4]; first compound 0.1 µM) | relative viability ([4]; first compound 0.3162 µM) | relative viability ([4]; first compound 1 µM)
1 | LK-2 | 1.04 | 1.03 | 1.02 | 0.809 | 0.773 | 0.631 | 0.534 | 0.546 | 0.526 | 0.766 | 0.955 | 1.35 | 0.927 | 0.959 | 1.08 | 0.215 | 0.314 | 0.269 | 0.218 | 0.309
2 | NCI-H661 |  |  |  |  |  | 0.657 | 0.722 | 0.563 | 0.679 | 0.637 | 0.817 | 0.695 | 0.546 | 0.85 | 0.5 | 0.763 | 0.84 | 0.744 | 0.786 | 0.759
3 | HCC-366 | 1.03 | 1.18 | 1.08 | 1.04 | 0.927 | 0.488 | 0.913 | 0.591 | 0.576 | 0.508 | 0.35 | 0.471 | 0.455 | 0.389 | 0.309 | 0.412 | 0.394 | 0.365 | 0.366 | 0.295
4 | HOP-62 | 1.18 | 1.07 | 0.94 | 1.04 | 0.934 | 0.843 | 1.09 | 1.06 | 0.786 | 0.933 | 0.909 | 1.25 | 1.06 | 0.84 | 0.772 | 0.759 | 0.769 | 0.574 | 0.732 | 0.596
5 | NCI-H1944 | 0.984 | 1.06 | 1.11 | 1 | 1.11 | 1.22 | 1.18 | 1.16 | 1.13 | 1.28 | 0.742 | 0.955 | 0.805 | 0.86 | 0.918 | 0.587 | 0.508 | 0.586 | 0.585 | 0.534
6 | SW 1573 | 1.22 | 0.973 | 0.988 | 0.896 | 1.07 | 0.926 | 0.635 | 0.754 | 0.863 | 0.867 | 0.73 | 1.08 | 0.628 | 0.922 | 0.778 | 0.832 | 1.11 | 0.696 | 0.992 | 0.588
7 | LU99A | 0.737 | 0.955 | 0.824 | 0.91 | 0.788 | 0.582 | 0.552 | 0.609 | 0.537 | 0.656 | 0.48 | 0.62 | 0.525 | 0.588 | 0.577 | 0.531 | 0.526 | 0.571 | 0.635 | 0.531
8 | EBC-1 | 0.461 | 0.318 | 0.351 | 0.385 | 0.302 | 0.951 | 1.01 | 0.889 | 0.91 | 0.788 | 0.869 | 0.885 | 0.877 | 0.948 | 0.654 |  |  |  |  | 
9 | SW 900 |  |  |  |  |  |  |  |  |  |  |  |  |  |  |  | 0.535 | 0.511 | 0.594 | 0.661 | 0.562
10 | NCI-H522 |  |  |  |  |  |  |  |  |  |  |  |  |  |  |  | 0.906 | 1.06 | 0.919 | 0.973 | 0.961
11 | ABC-1 |  |  |  |  |  | 0.908 | 0.914 | 0.75 | 0.814 | 0.967 | 0.777 | 1.22 | 1.36 | 0.963 | 0.913 | 1.02 | 0.948 | 1.28 | 1.11 | 1.27
12 | NCI-H1792 | 0.629 | 0.536 | 0.578 | 0.642 | 0.581 | 0.442 | 0.487 | 0.512 | 0.566 | 0.559 | 0.661 | 0.68 | 0.654 | 0.695 | 0.728 |  |  |  |  | 
13 | NCI-H1563 |  |  |  |  |  | 1.16 | 1.23 | 1.31 | 1.07 | 1.06 | 0.867 | 1.03 | 0.897 | 0.917 | 0.933 |  |  |  |  | 
14 | NCI-H1299 | 1.04 | 1.05 | 1.06 | 1.07 | 1.04 | 1.06 | 1.05 | 0.961 | 0.976 | 0.986 | 1.05 | 1.02 | 1.01 | 1.04 | 1.05 |  |  |  |  | 
15 | ChaGo-K-1 | 1.04 | 0.819 | 1.11 |  | 1.08 |  |  |  |  |  |  |  |  |  |  | 0.756 | 0.708 | 0.778 | 0.816 | 0.738
16 | NCI-H2170 | 0.675 | 0.62 | 0.687 |  | 0.554 |  |  |  |  |  | 0.762 | 0.874 | 0.862 |  | 0.786 | 0.817 | 0.882 | 0.836 | 0.832 | 0.859
17 | NCI-H2342 |  |  |  |  |  |  |  |  |  |  |  |  |  |  |  | 0.772 | 0.848 | 0.696 | 0.646 | 0.803
18 | A549 | 1.19 | 1.07 | 1.26 | 1.13 | 1.1 | 0.526 | 0.761 | 0.558 | 0.606 | 0.694 | 0.754 | 0.905 | 0.726 | 0.906 | 0.712 |  |  |  |  | 
19 | NCI-H358 |  |  |  |  |  | 0.739 | 0.727 | 0.626 | 0.705 | 0.666 | 1.03 | 0.824 | 0.737 | 0.753 | 0.669 | 0.65 | 0.704 | 0.692 | 0.573 | 0.421
20 | NCI-H650 |  |  |  |  |  | 0.948 | 0.696 | 0.644 | 0.764 | 0.76 | 1.01 | 1.23 | 0.945 | 0.832 | 0.725 | 0.454 | 0.565 | 0.557 | 0.415 | 0.303
21 | LCLC-103H |  |  |  |  |  | 1.1 | 1.1 | 0.983 | 0.977 | 0.88 | 1.04 | 0.982 | 0.868 | 0.872 | 0.897 | 0.852 | 0.725 | 0.732 | 0.771 | 0.769
22 | NCI-H1650 | 1.26 | 1.39 | 1.39 |  | 0.76 |  |  |  |  |  |  |  |  |  |  | 0.682 | 0.513 | 0.581 | 0.586 | 0.69
23 | Calu-6 | 0.848 | 0.863 | 0.78 | 0.777 | 0.772 | 1.05 | 0.992 | 0.892 | 0.955 | 0.914 | 0.914 | 0.977 | 0.903 | 1.55 | 0.765 |  |  |  |  | 
